# Test results as given in ChEMBL document CHEMBL4765377, “Design, synthesis, and evaluation of amphiphilic sofalcone derivatives as potent Gram-positive antibacterial agents” (Eur J Med Chem, 2020).
# Active and inactive are the calls of the source. The rule behind the calls is not given here.
# Assays:
# Staphylococcus aureus [1] = assay: Antibacterial activity against Staphylococcus aureus ATCC 29213 assessed as reduction in bacterial growth after 24 hrs by CLSI based broth micro dilution method; assay type: functional
# Staphylococcus aureus [2] = assay: Antibacterial activity against methicillin-resistant Staphylococcus aureus N315 assessed as reduction in bacterial growth after 24 hrs by CLSI based broth micro dilution method; assay type: functional
# Staphylococcus aureus [3] = assay: Antibacterial activity against methicillin-resistant Staphylococcus aureus NCTC10442 assessed as reduction in bacterial growth after 24 hrs by CLSI based broth micro dilution method; assay type: functional
# Escherichia coli [4] = assay: Antibacterial activity against Escherichia coli ATCC 25922 assessed as reduction in bacterial growth after 24 hrs by CLSI based broth micro dilution method; assay type: functional
# [5] = Hemolytic activity in rabbit RBC after 60 mins; assay type: ADME, cell-based, Oryctolagus cuniculus, Erythrocyte; conditions: rabbit red blood cells (erythrocytes)
# Staphylococcus aureus [6] = assay: Bactericidal activity against Staphylococcus aureus ATCC 29213 assessed as reduction in bacterial load at 4 time of MIC concentration preincubated for 60 mins followed by compound washout further subculturing and measured after 24 hrs by time-kill assay; assay type: functional; conditions: 1 h
# Staphylococcus aureus [7] = assay: Bactericidal activity against Staphylococcus aureus ATCC 29213 assessed as reduction in bacterial load at 8 time of MIC concentration preincubated for 30 mins followed by compound washout further subculturing and measured after 24 hrs by time-kill assay; assay type: functional; conditions: 0.5 h
# Staphylococcus aureus [8] = assay: Bactericidal activity against Staphylococcus aureus ATCC 29213 assessed as reduction in bacterial load at MIC concentration preincubated for 120 mins followed by compound washout further subculturing and measured after 24 hrs by time-kill assay; assay type: functional; conditions: 2 h
# Staphylococcus aureus [9] = assay: Bactericidal activity against Staphylococcus aureus ATCC 29213 assessed as reduction in bacterial load at 2 time of MIC concentration preincubated for 120 mins followed by compound washout further subculturing and measured after 24 hrs by time-kill assay; assay type: functional; conditions: 2 h
# Staphylococcus aureus [10] = assay: Antibacterial activity against Staphylococcus aureus ATCC 29213 assessed as reduction in bacterial growth after 24 hrs in presence of sodium ion by CLSI based broth micro dilution method; assay type: functional
# Staphylococcus aureus [11] = assay: Antibacterial activity against Staphylococcus aureus ATCC 29213 assessed as reduction in bacterial growth after 24 hrs in presence of potassium ion by CLSI based broth micro dilution method; assay type: functional
# Staphylococcus aureus [12] = assay: Antibacterial activity against Staphylococcus aureus ATCC 29213 assessed as reduction in bacterial growth after 24 hrs in presence of calcium ion by CLSI based broth micro dilution method; assay type: functional
# Staphylococcus aureus [13] = assay: Antibacterial activity against Staphylococcus aureus ATCC 29213 assessed as reduction in bacterial growth after 24 hrs in presence of magnesium ion by CLSI based broth micro dilution method; assay type: functional
# Staphylococcus aureus [14] = assay: Antibacterial activity against methicillin-resistant Staphylococcus aureus N315 assessed as reduction in bacterial growth after 24 hrs in presence of sodium ion by CLSI based broth micro dilution method; assay type: functional
# Staphylococcus aureus [15] = assay: Antibacterial activity against methicillin-resistant Staphylococcus aureus N315 assessed as reduction in bacterial growth after 24 hrs in presence of potassium ion by CLSI based broth micro dilution method; assay type: functional
# Staphylococcus aureus [16] = assay: Antibacterial activity against methicillin-resistant Staphylococcus aureus N315 assessed as reduction in bacterial growth after 24 hrs in presence of calcium ion by CLSI based broth micro dilution method; assay type: functional
# Staphylococcus aureus [17] = assay: Antibacterial activity against methicillin-resistant Staphylococcus aureus N315 assessed as reduction in bacterial growth after 24 hrs in presence of magnesium ion by CLSI based broth micro dilution method; assay type: functional
# Staphylococcus aureus [18] = assay: Antibacterial activity against methicillin-resistant Staphylococcus aureus NCTC10442 assessed as reduction in bacterial growth after 24 hrs in presence of sodium ion by CLSI based broth micro dilution method; assay type: functional
# Staphylococcus aureus [19] = assay: Antibacterial activity against methicillin-resistant Staphylococcus aureus NCTC10442 assessed as reduction in bacterial growth after 24 hrs in presence of potassium ion by CLSI based broth micro dilution method; assay type: functional
# Staphylococcus aureus [20] = assay: Antibacterial activity against methicillin-resistant Staphylococcus aureus NCTC10442 assessed as reduction in bacterial growth after 24 hrs in presence of calcium ion by CLSI based broth micro dilution method; assay type: functional
# Staphylococcus aureus [21] = assay: Antibacterial activity against methicillin-resistant Staphylococcus aureus NCTC10442 assessed as reduction in bacterial growth after 24 hrs in presence of magnesium ion by CLSI based broth micro dilution method; assay type: functional
# Escherichia coli [22] = assay: Antibacterial activity against Escherichia coli ATCC 25922 assessed as reduction in bacterial growth after 24 hrs in presence of sodium ion by CLSI based broth micro dilution method; assay type: functional
# Escherichia coli [23] = assay: Antibacterial activity against Escherichia coli ATCC 25922 assessed as reduction in bacterial growth after 24 hrs in presence of potassium ion by CLSI based broth micro dilution method; assay type: functional
# Escherichia coli [24] = assay: Antibacterial activity against Escherichia coli ATCC 25922 assessed as reduction in bacterial growth after 24 hrs in presence of calcium ion by CLSI based broth micro dilution method; assay type: functional
# Escherichia coli [25] = assay: Antibacterial activity against Escherichia coli ATCC 25922 assessed as reduction in bacterial growth after 24 hrs in presence of magnesium ion by CLSI based broth micro dilution method; assay type: functional
# [26] = Cytotoxicity against human MDA-MB-231 cells assessed as viability at 3.125 ug/ml after 24 hrs by CCK8 assay relative to control; assay type: cell-based; conditions: at 3.125 µg/mL, read-out: Activity
# [27] = Cytotoxicity against human MDA-MB-231 cells assessed as viability at 6.25 ug/ml after 24 hrs by CCK8 assay relative to control; assay type: cell-based; conditions: at 6.25 µg/mL, read-out: Activity
# [28] = Cytotoxicity against human MDA-MB-231 cells assessed as viability at 12.5 ug/ml after 24 hrs by CCK8 assay relative to control; assay type: cell-based; conditions: at 12.5 µg/mL, read-out: Activity
# [29] = Cytotoxicity against human MDA-MB-231 cells assessed as viability at 25 ug/ml after 24 hrs by CCK8 assay relative to control; assay type: cell-based; conditions: at 25 µg/mL, read-out: Activity
# [30] = Cytotoxicity against mouse NCTC clone 929 cells assessed as viability at 3.125 ug/ml after 24 hrs by CCK8 assay relative to control; assay type: cell-based; conditions: at 3.125 µg/mL, read-out: Activity
# [31] = Cytotoxicity against mouse NCTC clone 929 cells assessed as viability at 6.25 ug/ml after 24 hrs by CCK8 assay relative to control; assay type: cell-based; conditions: at 6.25 µg/mL, read-out: Activity
# [32] = Cytotoxicity against mouse NCTC clone 929 cells assessed as viability at 12.5 ug/ml after 24 hrs by CCK8 assay relative to control; assay type: cell-based; conditions: at 12.5 µg/mL, read-out: Activity
# [33] = Cytotoxicity against mouse NCTC clone 929 cells assessed as viability at 25 ug/ml after 24 hrs by CCK8 assay relative to control; assay type: cell-based; conditions: at 25 µg/mL, read-out: Activity
# [34] = Cytotoxicity against mouse corneal fibroblast cells assessed as viability at 3.125 ug/ml after 24 hrs by CCK8 assay relative to control; assay type: cell-based; conditions: at 3.125 µg/mL, read-out: Activity
# [35] = Cytotoxicity against mouse corneal fibroblast cells assessed as viability at 6.25 ug/ml after 24 hrs by CCK8 assay relative to control; assay type: cell-based; conditions: at 6.25 µg/mL, read-out: Activity
# [36] = Cytotoxicity against mouse corneal fibroblast cells assessed as viability at 12.5 ug/ml after 24 hrs by CCK8 assay relative to control; assay type: cell-based; conditions: at 12.5 µg/mL, read-out: Activity
# [37] = Cytotoxicity against mouse corneal fibroblast cells assessed as viability at 25 ug/ml after 24 hrs by CCK8 assay relative to control; assay type: cell-based; conditions: at 25 µg/mL, read-out: Activity
# Staphylococcus aureus [38] = assay: Antibacterial activity against Staphylococcus aureus ATCC 29213 assessed as reduction in bacterial growth at 0.5 time of MIC after 14 days passage by CLSI based broth micro dilution method; assay type: functional, organism-based; conditions: time 14.0 day
# Cell membrane [39] = assay: Disruption of bacterial cell membrane in Staphylococcus aureus ATCC 29213 measured for 1 hr by SYTOX green staining based assay
# Cell membrane [40] = assay: Disruption of bacterial cell membrane in methicillin-resistant Staphylococcus aureus NCTC10442 measured for 1 hr by SYTOX green staining based assay
# Cell membrane [41] = assay: Disruption of bacterial cell membrane in Staphylococcus aureus ATCC 29213 at 8 times of MIC measured for 2 hr by propidium iodide and SYTO9 dye based LIVE/DEAD bacterial viability assay
# Staphylococcus aureus [42] = assay: Antibacterial activity against Staphylococcus aureus ATCC 29213 infected in C57BL6 mouse assessed as reduction in bacterial load at 6.56 mmol/L, administered topically at 2 hrs interval for 3 days; assay type: functional; conditions: time 3 day
# Staphylococcus aureus [43] = assay: Antibacterial activity against Staphylococcus aureus ATCC 29213 infected in C57BL6 mouse assessed as reduction in bacterial burden at 6.56 mmol/L, administered topically at 2 hrs interval for 3 days relative to control; assay type: functional; parameters: scale not given: the % may be the effect or the level left; conditions: time 3 day
# Staphylococcus aureus [44] = assay: Bactericidal activity against Staphylococcus aureus ATCC 29213 assessed as reduction in bacterial load at MIC concentration preincubated for 240 mins followed by compound washout further subculturing and measured after 24 hrs by time-kill assay; assay type: functional; conditions: 4 h
# Staphylococcus aureus [45] = assay: Bactericidal activity against Staphylococcus aureus ATCC 29213 assessed as reduction in bacterial load at 2 time of MIC concentration preincubated for 240 mins followed by compound washout further subculturing and measured after 24 hrs by time-kill assay; assay type: functional; conditions: 4 h
# Staphylococcus aureus [46] = assay: Antibacterial activity against Staphylococcus aureus ATCC 29213 infected in C57BL6 mouse assessed as reduction in bacterial load at 33.65 mmol/L, administered topically at 2 hrs interval for 3 days; assay type: functional; conditions: time 3 day
structure (smiles),measurement,setting,value
CC(C)=CCOc1ccc(/C=C/C(=O)c2ccc(OCC=C(C)C)cc2OCC(=O)N[C@@H](CCCNC(=N)N)C(=O)N[C@@H](CCCNC(=N)N)C(N)=O)cc1,MIC,Staphylococcus aureus [1],1.56 µg/mL
same,MIC,Staphylococcus aureus [2],1.56 µg/mL
same,MIC,Staphylococcus aureus [3],1.56 µg/mL
same,MIC,Escherichia coli [4],6.25 µg/mL
same,HC50 at 1 h,[5],276 µg/mL
same,log(activity),Staphylococcus aureus [6],3.25
same,log(activity),Staphylococcus aureus [7],3.75
same,log(activity),Staphylococcus aureus [8],2.6
same,log(activity),Staphylococcus aureus [9],2.76
same,MIC,Staphylococcus aureus [10],1.56 µg/mL
same,MIC,Staphylococcus aureus [11],1.56 µg/mL
same,MIC,Staphylococcus aureus [12],1.56 µg/mL
same,MIC,Staphylococcus aureus [13],1.56 µg/mL
same,MIC,Staphylococcus aureus [14],1.56 µg/mL
same,MIC,Staphylococcus aureus [15],1.56 µg/mL
same,MIC,Staphylococcus aureus [16],1.56 µg/mL
same,MIC,Staphylococcus aureus [17],1.56 µg/mL
same,MIC,Staphylococcus aureus [18],1.56 µg/mL
same,MIC,Staphylococcus aureus [19],1.56 µg/mL
same,MIC,Staphylococcus aureus [20],1.56 µg/mL
same,MIC,Staphylococcus aureus [21],1.56 µg/mL
same,MIC,Escherichia coli [22],12.5 µg/mL
same,MIC,Escherichia coli [23],6.25 µg/mL
same,MIC,Escherichia coli [24],6.25 µg/mL
same,MIC,Escherichia coli [25],6.25 µg/mL
same,"viability at 24 h, 3.125 ug/ml",[26],95.6%
same,"viability at 24 h, 6.25 ug/ml",[27],89.3%
same,"viability at 24 h, 12.5 ug/ml",[28],84.8%
same,"viability at 24 h, 25 ug/ml",[29],67.7%
same,"viability at 24 h, 3.125 ug/ml",[30],82%
same,"viability at 24 h, 6.25 ug/ml",[31],79%
same,"viability at 24 h, 12.5 ug/ml",[32],69.9%
same,"viability at 24 h, 25 ug/ml",[33],55.2%
same,"viability at 24 h, 3.125 ug/ml",[34],98%
same,"viability at 24 h, 6.25 ug/ml",[35],76.3%
same,"viability at 24 h, 12.5 ug/ml",[36],64.2%
same,"viability at 24 h, 25 ug/ml",[37],59.9%
same,Activity,Staphylococcus aureus [38],Active
same,Activity,Cell membrane [39],Dose-dependent effect
same,Activity,Cell membrane [40],Dose-dependent effect
same,Activity,Cell membrane [41],Active
same,log(activity),Staphylococcus aureus [42],4.34
same,Activity,Staphylococcus aureus [43],>99.99%
CN[C@H](CC(C)C)C(=O)N[C@H]1C(=O)N[C@@H](CC(N)=O)C(=O)N[C@H]2C(=O)N[C@H]3C(=O)N[C@H](C(=O)N[C@H](C(=O)O)c4cc(O)cc(O)c4-c4cc3ccc4O)[C@H](O)c3ccc(c(Cl)c3)Oc3cc2cc(c3O[C@@H]2O[C@H](CO)[C@@H](O)[C@H](O)[C@H]2O[C@H]2C[C@](C)(N)[C@H](O)[C@H](C)O2)Oc2ccc(cc2Cl)[C@H]1O [VANCOMYCIN],MIC,Staphylococcus aureus [1],0.78 µg/mL
same,MIC,Staphylococcus aureus [2],1.56 µg/mL
same,MIC,Staphylococcus aureus [3],1.56 µg/mL
same,log(activity),Staphylococcus aureus [44],1.1
same,log(activity),Staphylococcus aureus [45],1.1
same,log(activity),Staphylococcus aureus [46],4.16
